Laboratory results taken from patent US6515103B1 (priority 1996, dated 2003).
Values joined by “and” are separate entries in the source; they are usually repeats but may differ in a detail not shown here. Identical values can stand only once. Like-named read-outs stand apart in the source and are kept apart here. Marks after values point to notes of the source that are not given here. Where a SMILES comes first, the peptide text is derived from it. [ ]: non-standard residue; d: D form. Gla = N[C@@H](CC(C(=O)O)C(=O)O)C(=O)O

Assays:
[1] = test system: Frings audiogenic seizure-susceptible mice; conditions: mouse, in vivo
[2] = test system: Frings audiogenic seizure-susceptible mice; conditions: mouse, in vivo; remark: listed apart in the source
[3] = target: NMDA receptor; assay: spermine-stimulated [3H]MK-801 binding assay, inhibition
[4] = test system: young (<2 weeks old) mice; conditions: mouse, in vivo
[5] = test system: young (<2 weeks old) mice; conditions: mouse, in vivo; remark: listed apart in the source
[6] = test system: young (<2 weeks old) mice; conditions: mouse, in vivo; remark: listed apart in the source
[7] = test system: CF No. 1 mice; conditions: mouse, in vivo; for anticonvulsant activity in CF No. 1 mice: sc
[8] = target: NR1-1b/NR2B NMDA receptor subtype
[9] = target: NMDA receptor
[10] = test system: NR1-1b/NR2B NMDA subtype; assay: cell-based
[11] = target: T1, NR1-1b/NR2B NMDA subtype (Homo sapiens, UniProt Q05586+Q13224); assay: cell-based
T1 construct: expressed in transfected cells; host or cells: oocytes

[12] = target: AMPA receptor GluR1 (Homo sapiens, UniProt P42261); assay type: cell-based
[13] = test system: CF #1 Mice; conditions: mouse, in vivo
[14] = target: kainate receptors (GluR6) (Homo sapiens, UniProt Q13002); assay type: cell-based
[15] = target: T2, NR1.1 B subtype (Homo sapiens, UniProt Q05586); assay type: cell-based
T2 construct: expressed in transfected cells; host or cells: oocytes

[16] = target: T3, NR1-1b/NR2D combination (Homo sapiens, UniProt O15399+Q05586); assay type: cell-based
T3 construct: expressed in transfected cells; host or cells: oocytes

[17] = target: T4, NR1 A subtype (Homo sapiens, UniProt Q05586); assay type: cell-based
T4 construct: expressed in transfected cells; host or cells: oocytes

T1 sequence (Q13224 27-1484, other chains not shown): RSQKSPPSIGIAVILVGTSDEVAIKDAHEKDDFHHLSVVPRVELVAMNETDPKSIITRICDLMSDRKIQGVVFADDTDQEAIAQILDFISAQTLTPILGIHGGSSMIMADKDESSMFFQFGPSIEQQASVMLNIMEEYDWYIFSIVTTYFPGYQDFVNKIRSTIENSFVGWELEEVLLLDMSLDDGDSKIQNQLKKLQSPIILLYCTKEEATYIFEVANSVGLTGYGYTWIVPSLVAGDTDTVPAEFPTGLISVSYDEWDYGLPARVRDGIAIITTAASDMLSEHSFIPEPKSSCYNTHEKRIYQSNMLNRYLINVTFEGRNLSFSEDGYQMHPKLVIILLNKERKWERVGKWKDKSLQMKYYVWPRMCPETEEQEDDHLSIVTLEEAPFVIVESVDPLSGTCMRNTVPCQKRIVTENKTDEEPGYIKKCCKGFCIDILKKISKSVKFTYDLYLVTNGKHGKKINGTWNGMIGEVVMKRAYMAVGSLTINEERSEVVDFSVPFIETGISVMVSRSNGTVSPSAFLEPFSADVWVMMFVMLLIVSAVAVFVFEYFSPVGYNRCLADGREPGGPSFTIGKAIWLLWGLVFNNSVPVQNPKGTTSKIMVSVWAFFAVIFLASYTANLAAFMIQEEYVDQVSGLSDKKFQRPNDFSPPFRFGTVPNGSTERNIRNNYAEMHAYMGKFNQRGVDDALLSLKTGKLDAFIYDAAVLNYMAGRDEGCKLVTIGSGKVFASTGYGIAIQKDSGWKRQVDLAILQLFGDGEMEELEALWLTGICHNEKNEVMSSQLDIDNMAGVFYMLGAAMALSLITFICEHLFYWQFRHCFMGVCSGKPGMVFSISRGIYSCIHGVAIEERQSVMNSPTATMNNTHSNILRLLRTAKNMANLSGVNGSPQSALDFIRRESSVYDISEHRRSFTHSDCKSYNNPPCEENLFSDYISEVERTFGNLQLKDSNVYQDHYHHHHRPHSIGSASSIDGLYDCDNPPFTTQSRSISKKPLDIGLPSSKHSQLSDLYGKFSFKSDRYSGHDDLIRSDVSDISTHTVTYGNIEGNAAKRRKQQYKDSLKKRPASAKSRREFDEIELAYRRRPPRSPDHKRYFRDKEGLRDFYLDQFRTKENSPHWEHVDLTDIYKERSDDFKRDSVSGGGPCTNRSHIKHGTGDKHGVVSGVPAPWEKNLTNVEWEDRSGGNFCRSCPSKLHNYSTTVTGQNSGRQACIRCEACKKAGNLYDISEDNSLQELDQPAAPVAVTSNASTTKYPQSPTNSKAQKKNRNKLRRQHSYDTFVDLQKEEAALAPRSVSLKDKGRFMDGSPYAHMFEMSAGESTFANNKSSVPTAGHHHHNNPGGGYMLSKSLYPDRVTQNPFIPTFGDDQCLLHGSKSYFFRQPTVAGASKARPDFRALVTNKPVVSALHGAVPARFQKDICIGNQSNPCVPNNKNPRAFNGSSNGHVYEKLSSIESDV
T3 sequence (O15399 28-1336, other chains not shown): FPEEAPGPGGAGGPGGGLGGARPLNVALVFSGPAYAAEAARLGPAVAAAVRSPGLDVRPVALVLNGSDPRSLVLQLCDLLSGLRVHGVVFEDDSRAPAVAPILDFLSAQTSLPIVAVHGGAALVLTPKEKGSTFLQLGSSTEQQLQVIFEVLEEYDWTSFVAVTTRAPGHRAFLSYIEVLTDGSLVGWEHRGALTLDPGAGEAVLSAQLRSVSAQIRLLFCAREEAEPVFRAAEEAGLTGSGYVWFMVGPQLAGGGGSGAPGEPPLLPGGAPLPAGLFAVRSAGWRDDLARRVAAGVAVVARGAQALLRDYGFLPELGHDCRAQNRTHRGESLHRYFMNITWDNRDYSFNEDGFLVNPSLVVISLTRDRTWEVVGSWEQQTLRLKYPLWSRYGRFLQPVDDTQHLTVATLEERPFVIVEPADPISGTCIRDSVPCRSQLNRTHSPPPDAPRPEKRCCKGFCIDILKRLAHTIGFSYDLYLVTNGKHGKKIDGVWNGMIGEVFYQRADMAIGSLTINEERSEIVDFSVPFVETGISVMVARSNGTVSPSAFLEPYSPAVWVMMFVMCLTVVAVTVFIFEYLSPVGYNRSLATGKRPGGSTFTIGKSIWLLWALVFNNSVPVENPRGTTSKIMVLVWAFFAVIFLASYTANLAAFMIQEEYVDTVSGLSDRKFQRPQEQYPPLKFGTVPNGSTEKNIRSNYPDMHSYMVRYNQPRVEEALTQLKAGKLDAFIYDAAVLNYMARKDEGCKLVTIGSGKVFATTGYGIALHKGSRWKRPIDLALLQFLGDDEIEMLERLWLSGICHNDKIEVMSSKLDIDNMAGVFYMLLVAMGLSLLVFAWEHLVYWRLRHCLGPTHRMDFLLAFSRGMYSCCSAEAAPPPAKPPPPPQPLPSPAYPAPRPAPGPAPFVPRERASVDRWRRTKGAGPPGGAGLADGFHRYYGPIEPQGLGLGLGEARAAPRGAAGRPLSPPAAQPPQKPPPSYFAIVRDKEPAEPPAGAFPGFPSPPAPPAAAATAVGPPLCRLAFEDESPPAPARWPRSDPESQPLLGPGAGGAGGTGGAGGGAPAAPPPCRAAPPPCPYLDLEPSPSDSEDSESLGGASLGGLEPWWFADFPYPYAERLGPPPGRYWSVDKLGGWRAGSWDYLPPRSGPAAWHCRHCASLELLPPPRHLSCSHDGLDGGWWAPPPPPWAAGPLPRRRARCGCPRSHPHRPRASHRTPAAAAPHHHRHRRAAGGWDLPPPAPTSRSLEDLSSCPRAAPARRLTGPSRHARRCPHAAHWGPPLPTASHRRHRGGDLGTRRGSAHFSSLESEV
Sequence of kainate receptors (GluR6) (Q13002 32-908, species assumed): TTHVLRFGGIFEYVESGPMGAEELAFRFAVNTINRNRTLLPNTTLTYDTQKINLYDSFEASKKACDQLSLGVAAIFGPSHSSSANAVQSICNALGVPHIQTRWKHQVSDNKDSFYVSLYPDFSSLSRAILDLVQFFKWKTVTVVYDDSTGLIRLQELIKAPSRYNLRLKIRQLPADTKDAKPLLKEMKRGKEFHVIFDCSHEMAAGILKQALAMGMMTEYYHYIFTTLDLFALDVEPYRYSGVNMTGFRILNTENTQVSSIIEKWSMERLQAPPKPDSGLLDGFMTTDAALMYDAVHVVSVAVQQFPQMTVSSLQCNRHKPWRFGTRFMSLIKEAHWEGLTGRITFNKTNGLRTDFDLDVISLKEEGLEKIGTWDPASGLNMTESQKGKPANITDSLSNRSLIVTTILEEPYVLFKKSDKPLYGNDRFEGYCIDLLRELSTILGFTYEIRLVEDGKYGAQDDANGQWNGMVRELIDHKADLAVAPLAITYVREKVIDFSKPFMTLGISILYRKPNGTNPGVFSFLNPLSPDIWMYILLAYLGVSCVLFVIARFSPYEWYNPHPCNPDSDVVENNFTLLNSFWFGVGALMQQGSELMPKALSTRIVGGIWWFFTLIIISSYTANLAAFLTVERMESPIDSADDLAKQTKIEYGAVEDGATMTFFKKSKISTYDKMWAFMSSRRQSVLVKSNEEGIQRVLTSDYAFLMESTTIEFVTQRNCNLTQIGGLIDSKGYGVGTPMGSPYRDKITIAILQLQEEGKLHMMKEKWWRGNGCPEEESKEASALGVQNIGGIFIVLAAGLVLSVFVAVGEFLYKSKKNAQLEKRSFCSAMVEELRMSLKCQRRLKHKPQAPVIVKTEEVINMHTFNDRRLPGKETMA
Sequence of AMPA receptor GluR1 (P42261 19-906): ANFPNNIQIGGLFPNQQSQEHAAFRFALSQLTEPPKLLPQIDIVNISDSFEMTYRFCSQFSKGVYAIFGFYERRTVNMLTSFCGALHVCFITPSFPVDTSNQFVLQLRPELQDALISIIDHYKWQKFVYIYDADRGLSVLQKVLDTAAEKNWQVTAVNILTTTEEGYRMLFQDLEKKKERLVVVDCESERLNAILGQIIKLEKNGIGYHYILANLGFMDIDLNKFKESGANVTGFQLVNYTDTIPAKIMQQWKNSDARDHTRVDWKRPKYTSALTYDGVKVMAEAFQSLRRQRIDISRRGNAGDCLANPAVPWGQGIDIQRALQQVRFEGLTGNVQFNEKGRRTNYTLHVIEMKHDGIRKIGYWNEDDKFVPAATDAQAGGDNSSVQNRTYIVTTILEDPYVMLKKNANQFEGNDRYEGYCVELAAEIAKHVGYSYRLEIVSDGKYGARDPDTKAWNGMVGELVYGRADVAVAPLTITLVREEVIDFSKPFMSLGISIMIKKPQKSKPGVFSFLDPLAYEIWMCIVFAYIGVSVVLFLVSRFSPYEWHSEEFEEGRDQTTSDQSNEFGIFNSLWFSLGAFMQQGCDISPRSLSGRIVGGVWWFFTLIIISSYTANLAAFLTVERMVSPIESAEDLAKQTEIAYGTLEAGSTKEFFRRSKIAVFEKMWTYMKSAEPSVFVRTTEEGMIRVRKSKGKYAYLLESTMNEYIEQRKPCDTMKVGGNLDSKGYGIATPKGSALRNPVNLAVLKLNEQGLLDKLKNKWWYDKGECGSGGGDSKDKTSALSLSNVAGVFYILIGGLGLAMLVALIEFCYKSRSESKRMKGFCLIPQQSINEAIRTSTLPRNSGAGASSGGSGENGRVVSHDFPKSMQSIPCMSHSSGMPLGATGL

In the case of `CSCC[C@H](NC(=O)[C@H](CCCCN)NC(=O)[C@H](CCC(N)=O)NC(=O)[C@H](Cc1ccc(O)cc1)NC(=O)[C@H](CC(C(=O)O)C(=O)O)NC(=O)[C@H](CC(C(=O)O)C(=O)O)NC(=O)[C@H](CCC(=O)O)NC(=O)CN)C(=O)N[C@@H](CC(C)C)C(=O)N[C@@H](CC(C(=O)O)C(=O)O)C(=O)N[C@@H](CC(N)=O)C(=O)N[C@@H](CC(C)C)C(=O)N[C@@H](CCCNC(=N)N)C(=O)N[C@@H](CC(C(=O)O)C(=O)O)C(=O)N[C@@H](C)C(=O)N[C@@H](CCC(=O)O)C(=O)N[C@H](C(=O)N[C@@H](CCCCN)C(=O)N[C@@H](CCCCN)C(=O)N[C@@H](CC(N)=O)C(=O)N[C@@H](C)C(N)=O)C(C)C` [Con T, Conantokin T] (H-GE[Gla][Gla]YQKML[Gla]NLR[Gla]AEVKKNA-NH2), the TD50 [1] is reported as 0.228 nmols, the “behavioral toxicity, rotorod test” value ([1]; iv, 12 mg/kg) is reported as “No animals exhibited behavioral toxicity” and the P.I. [2] is reported as 13.
With A^7 Con G (peptide) the IC50 [3] was 45 nM.
With Conantokin Oc [Con Oc] the “Catalepsy Test, positive/tested” value [4] was 0/3, the “Sleepy Test, positive/tested” value [5] was 2/3 and 0/3 and the “Righting Reflex, positive/tested” value [6] was 0/3.
For Conantokin Gm [Con Gm], the “anticonvulsant activity in CF No. 1 mice” value [7] was “anticonvulsant activity”.
For Conantokin R (peptide), the Ki [8] was 140 nM.
For Conantokin G (peptide), the IC50 [3] was 195 nM and the IC50 [9] was 195 nM.
For Conantokin S1 [Con S1], the “anticonvulsant activity in CF No. 1 mice” value [7] was “anticonvulsant activity”.
In the case of Conantokin Qu [Con Qu], the “anticonvulsant activity in CF No. 1 mice” value [7] is reported as “anticonvulsant activity”.
`CC[C@H](C)[C@H](NC(=O)[C@H](CC(N)=O)NC(=O)[C@H](CC(C(=O)O)C(=O)O)NC(=O)[C@H](CCCNC(=N)N)NC(=O)[C@H](C)NC(=O)[C@H](CC(C)C)NC(=O)[C@H](CC(C(=O)O)C(=O)O)NC(=O)[C@H](C)NC(=O)[C@H](C)NC(=O)[C@H](CCSC)NC(=O)[C@H](CCCCN)NC(=O)[C@H](C)NC(=O)[C@@H](NC(=O)[C@H](CC(C(=O)O)C(=O)O)NC(=O)[C@H](CC(C(=O)O)C(=O)O)NC(=O)[C@H](CCC(=O)O)NC(=O)CN)C(C)C)C(=O)N[C@@H](C)C(=O)N[C@@H](CCCCN)C(=O)NCC(=O)N[C@H]1CSSC[C@@H](C(=O)N[C@@H](Cc2ccc(O)cc2)C(=O)N2CCC[C@H]2C(=O)O)NC(=O)[C@H](CC(N)=O)NC(=O)[C@H](C(C)C)NC(=O)[C@H](CCCCN)NC1=O` [Con R, Conantokin R] was tested, and the “Catalepsy Test, positive/tested” value [4] was 2/3, the “affinity for NR1-1b/NR2B relative to NR1-1b/NR2D” value [10] was “greater than 50 fold” and the “selectivity for the B splice variant of NR1 in heteromeric complexes” value [10] was “selective for the B splice variant”. For the same compound, the “inhibition of heteromeric NR1:NR2B complexes with B splice variant of NR1” value [11] was “inhibited”, the inhibition at 3 µM ([11]; read-out: inhibition of the current produced by the NR1-1b/NR2B NMDA subtype in response to glutamate and glycine) was roughly 95% and the “Sleepy Test, positive/tested” value [5] was 2/3. For the same compound, the “TD50” value [1] was 164 pmol, the “inhibition of AMPA receptor GluR1” value [12] was “not to inhibit” and the TD50 [13] was “˜0.300 nmols”. For the same compound, the “# Protected/# Tested” value [2] was 4/4, the ED50 [2] was 0.013^c nmols and 0.013 nmols and the “ED50 (pmol, i.c.v.)” value [2] was 9 pmol and 9.00 pmol. The P.I. [2] was 17, the “Protective Index, PI (TD50/ED50)” value [2] was 18 and the “antiseizure activity relative to valproic acid” value [2] was “greater than 400,000 fold”. The “protective index relative to valproic acid” value [2] was “at least eight times better”, the “Righting Reflex, positive/tested” value [6] was 2/3 and the “inhibition of kainate receptors (GluR6)” value [14] was “not to inhibit”. For the same compound, the “inhibition of homomeric NR1 complex, NR1.1 B subtype” value [15] was “only inhibited the NR1.1 B subtype”, the “MES ED50” value [7] was 0.083 nmols and the P.I. [7] was 3.6. For the same compound, the “anticonvulsant activity in CF No. 1 mice” value [7] was “anticonvulsant activity”, the “effect on NR1-1b/NR2D combination” value [16] was “not affected” and the “inhibition of homomeric NR1 complex, A subtype” value [17] was “no effect”.
Conatokin L [Con L] was tested, and the “Catalepsy Test, positive/tested” value [4] was 4/4 and 3/4, the “Sleepy Test, positive/tested” value [5] was 4/4 and the “Righting Reflex, positive/tested” value [6] was 2/4 and 3/4. The “anticonvulsant activity in CF No. 1 mice” value [7] was “anticonvulsant activity”.
